In patent publication US9149038B2, “4-amino-6-(heterocyclic)picolinates and 6-amino-2-(heterocyclic)pyrimidine-4-carboxylates and their use as herbicides” (Dow AgroSciences LLC, priority 2013, dated 2015):
Where two headings read alike, the source gives them in different places.

Tests used:
[1] = test system: Key Grass and Sedge Weeds as well as Grass Crops; assay: Post-Emergent Test II: postemergent herbicidal activity, visual rating after 14 d (Table 8); assay type: in vivo; settings: post-emergence, 336 h; for pest or weed control at 140 g/ha: 140 g ai/ha; for pest or weed control at 35 g/ha: 35 g ai/ha; for pest or weed control at 70 g/ha: 70 g ai/ha
Description: (§1) Herbicidal evaluations were made visually on a scale of 0 to 100 where 0 represents no activity and 100 represents complete plant death.
(§2) Seeds or nutlets of the desired test plant species were planted in Sun Gro Metro-Mix® 360 planting mixture, which typically has a pH of 6.0 to 6.8 and an organic matter content of about 30 percent, in plastic pots with a surface area of 64 square centimeters (cm^2). When required to ensure good germination and healthy plants, a fungicide treatment and/or other chemical or physical treatment was applied. The plants were grown for 7-21 d in a greenhouse with an approximate 15 h photoperiod which was maintained at about 23-29° C. during the day and 22-28° C. during the night. Nutrients and water were added on a regular basis and supplemental lighting was provided with overhead metal halide 1000-Watt lamps as necessary. The plants were employed for testing when they reached the first or second true leaf stage.
(§3) A weighed amount, determined by the highest rate to be tested, of each test compound was placed in a 25 mL glass vial and was dissolved in 4 mL of a 97:3 v/v mixture of acetone and DMSO to obtain concentrated stock solutions. […] The concentrated stock solutions obtained were diluted with 20 mL of an aqueous mixture containing acetone, water, isopropyl alcohol, DMSO, Atplus 411F crop oil concentrate, and Triton® X-155 surfactant in a 48.5:39:10:1.5:1.0:0.02 v/v ratio to obtain spray solutions containing the highest application rates. Additional application rates were obtained by serial dilution of 12 mL of the high rate solution into a solution containing 2 mL of a 97:3 v/v mixture of acetone and DMSO and 10 mL of an aqueous mixture containing acetone, water, isopropyl alcohol, DMSO, Atplus 411F crop oil concentrate, and Triton X-155 surfactant in a 48.5:39:10:1.5:1.0:0.02 v/v ratio to obtain ½×, ¼×, ⅛× and 1/16× rates of the high rate. Compound requirements are based upon a 12 mL application volume at a rate of 187 liters per hectare (L/ha). Formulated compounds were applied to the plant material with an overhead Mandel track sprayer equipped with 8002E nozzles calibrated to deliver 187 L/ha over an application area of 0.503 square meters at a spray height of 18 inches (43 cm) above the average plant canopy height. Control plants were sprayed in the same manner with the solvent blank.
(§4) The treated plants and control plants were placed in a greenhouse as described above and watered by subirrigation to prevent wash-off of the test compounds. After 14 d, the condition of the test plants as compared with that of the untreated plants was determined visually and scored on a scale of 0 to 100 percent where 0 corresponds to no injury and 100 corresponds to complete kill and are presented as indicated in Table 4.

[2] = test system: Key Broadleaf Weed and Crop Species; assay: Post-Emergent Test II: postemergent herbicidal activity, visual rating after 14 d (Table 7); assay type: in vivo; settings: post-emergence, 336 h; for pest or weed control at 140 g/ha: 140 g ai/ha; for pest or weed control at 35 g/ha: 35 g ai/ha; for pest or weed control at 70 g/ha: 70 g ai/ha
Description: as §1, §2, §3, §4

[3] = maize, corn (Zea mays), read-out: Visual Growth Reduction (%) 14 Days After Application ZEAMX
[4] = rice (Oryza sativa), read-out: Visual Growth Reduction (%) 14 Days After Application ORYSA
[5] = wheat, spring (Triticum aestivum), read-out: Visual Growth Reduction (%) 14 Days After Application TRZAS
[6] = yellow nutsedge (Cyperus esculentus), read-out: Visual Growth Reduction (%) 14 Days After Application CYPES
[7] = lambsquarters (Chenopodium album), read-out: Visual Growth Reduction (%) 14 Days After Application CHEAL
[8] = oilseed rape, canola (Brassica napus), read-out: Visual Growth Reduction (%) 14 Days After Application BRSNN
[9] = redroot pigweed (Amaranthus retroflexus), read-out: Visual Growth Reduction (%) 14 Days After Application AMARE
[10] = sunflower (Helianthus annuus), read-out: Visual Growth Reduction (%) 14 Days After Application HELAN
[11] = velvetleaf (Abutilon theophrasti), read-out: Visual Growth Reduction (%) 14 Days After Application ABUTH
[12] = wild poinsettia (Euphorbia heterophylla), read-out: Visual Growth Reduction (%) 14 Days After Application EPHHL
[13] = giant foxtail (Setaria faberi), read-out: Visual Growth Reduction (%) 14 Days After Application SETFA

SMILES	pest or weed control at 35 g/ha [1, 3]	pest or weed control at 70 g/ha [1, 3]	pest or weed control at 140 g/ha [1, 3]	pest or weed control at 35 g/ha [1, 4]	pest or weed control at 70 g/ha [1, 4]	pest or weed control at 140 g/ha [1, 4]	pest or weed control at 35 g/ha [1, 5]	pest or weed control at 70 g/ha [1, 5]	pest or weed control at 140 g/ha [1, 5]	pest or weed control at 35 g/ha [1, 6]	pest or weed control at 70 g/ha [1, 6]	pest or weed control at 140 g/ha [1, 6]	pest or weed control at 35 g/ha [2, 7]	pest or weed control at 70 g/ha [2, 7]	pest or weed control at 140 g/ha [2, 7]	pest or weed control at 35 g/ha [2, 8]	pest or weed control at 70 g/ha [2, 8]	pest or weed control at 140 g/ha [2, 8]	pest or weed control at 35 g/ha [2, 9]	pest or weed control at 70 g/ha [2, 9]	other results
CN1CCc2cc(-c3nc(C(=O)O)c(Cl)c(N)c3F)ccc21 [Compound 108]																					pest or weed control at 140 g/ha ([1]; barnyardgrass (Echinochloa crus-galli), read-out: Visual Growth Reduction (%) 14 Days After Application, ECHCG): 75 to 84%; pest or weed control at 140 g/ha ([1]; giant foxtail (Setaria faberi), read-out: Visual Growth Reduction (%) 14 Days After Application, SETFA): 0 to 29%; pest or weed control at 140 g/ha ([1]; maize, corn (Zea mays), read-out: Visual Growth Reduction (%) 14 Days After Application, ZEAMX): 0 to 29%; pest or weed control at 140 g/ha ([1]; rice (Oryza sativa), read-out: Visual Growth Reduction (%) 14 Days After Application, ORYSA): 0 to 29%; pest or weed control at 140 g/ha ([1]; wheat, spring (Triticum aestivum), read-out: Visual Growth Reduction (%) 14 Days After Application, TRZAS): 0 to 29%; pest or weed control at 140 g/ha ([1]; yellow nutsedge (Cyperus esculentus), read-out: Visual Growth Reduction (%) 14 Days After Application, CYPES): 0 to 29%; pest or weed control at 140 g/ha ([2]; ABUTH: velvetleaf (Abutilon theophrasti), read-out: Visual Growth Reduction (%) 14 Days After Application ABUTH): 0 to 29%; pest or weed control at 140 g/ha ([2]; AMARE: redroot pigweed (Amaranthus retroflexus), read-out: Visual Growth Reduction (%) 14 Days After Application AMARE): 0 to 29%; pest or weed control at 140 g/ha ([2]; BRSNN: oilseed rape, canola (Brassica napus), read-out: Visual Growth Reduction (%) 14 Days After Application BRSNN): 0 to 29%; pest or weed control at 140 g/ha ([2]; CHEAL: lambsquarters (Chenopodium album), read-out: Visual Growth Reduction (%) 14 Days After Application CHEAL): 60 to 74%; pest or weed control at 140 g/ha ([2]; EPHHL: wild poinsettia (Euphorbia heterophylla), read-out: Visual Growth Reduction (%) 14 Days After Application EPHHL): 0 to 29%; pest or weed control at 140 g/ha ([2]; HELAN: sunflower (Helianthus annuus), read-out: Visual Growth Reduction (%) 14 Days After Application HELAN): 60 to 74%
COC(=O)c1nc(-c2cc(F)c3c(c2)OC(F)(F)O3)c(F)c(N)c1Cl [Compound 17]	0 to 29%	0 to 29%	60 to 74%	0 to 29%	0 to 29%	0 to 29%	0 to 29%	0 to 29%	0 to 29%	0 to 29%	0 to 29%	0 to 29%	0 to 29%	0 to 29%	0 to 29%	0 to 29%	0 to 29%	0 to 29%	0 to 29%	0 to 29%	pest or weed control at 140 g/ha [2, 9]: 0 to 29%; pest or weed control at 35 g/ha [2, 10]: 0 to 29%; pest or weed control at 70 g/ha [2, 10]: 0 to 29%; pest or weed control at 140 g/ha [2, 10]: 0 to 29%; pest or weed control at 35 g/ha [2, 11]: 0 to 29%; pest or weed control at 70 g/ha [2, 11]: 0 to 29%; pest or weed control at 140 g/ha [2, 11]: 0 to 29%; pest or weed control at 35 g/ha [2, 12]: 0 to 29%; pest or weed control at 70 g/ha [2, 12]: 0 to 29%; pest or weed control at 140 g/ha [2, 12]: 0 to 29%
Cc1c(-c2cc(N)c(Cl)c(C(=O)O)n2)ccc2c1OC(F)(F)O2 [Compound 36]	0 to 29%	0 to 29%	0 to 29%	0 to 29%	0 to 29%	0 to 29%	0 to 29%	0 to 29%	0 to 29%	0 to 29%	0 to 29%	0 to 29%	0 to 29%	45 to 59%	45 to 59%	0 to 29%	30 to 44%	45 to 59%	95 to 100%	95 to 100%	pest or weed control at 35 g/ha [1, 13]: 0 to 29%; pest or weed control at 70 g/ha [1, 13]: 30 to 44%; pest or weed control at 140 g/ha [1, 13]: 45 to 59%; pest or weed control at 140 g/ha [2, 9]: 95 to 100%; pest or weed control at 35 g/ha [2, 10]: 75 to 84%; pest or weed control at 70 g/ha [2, 10]: 75 to 84%; pest or weed control at 140 g/ha [2, 10]: 85 to 94%; pest or weed control at 35 g/ha [2, 11]: 0 to 29%; pest or weed control at 70 g/ha [2, 11]: 0 to 29%; pest or weed control at 140 g/ha [2, 11]: 0 to 29%; pest or weed control at 35 g/ha [2, 12]: 0 to 29%; pest or weed control at 70 g/ha [2, 12]: 0 to 29%; pest or weed control at 140 g/ha [2, 12]: 0 to 29%
